Experimental data published in publication PMC8674134, “Safety and efficacy of avapritinib in advanced systemic mastocytosis: the phase 1 EXPLORER trial” (Nature Medicine, 2021).

Columns and labels:
[1] = tested on: patients with AdvSM and other myeloid malignancies; assay: Safety: adverse events graded by NCI CTCAE v4.03, phase 1 EXPLORER trial; type: in vivo
Excerpt: The safety population included all enrolled patients and was used to report AEs and PROs (in those who completed the questionnaire). The dose-determining population included all patients in a cohort in part 1 who received ≥21 prescribed avapritinib doses in C1 and completed follow-up through C1, or experienced DLT. The determination of the MTD and RP2D were based on the dose-determining population. […] The AdvSM safety population was also used to report AEs and OS. […] The response-evaluable population was used to report adjudicated response rates and PFS. The PK population comprised all patients with sufficient plasma concentration–time data to reliably estimate the PK parameters of avapritinib.
Safety assessments included determination of ECOG performance status, clinical laboratory testing, vital signs, electrocardiograms, brain imaging (MRI or CT scan) and physical examinations. AEs were graded according to National Cancer Institute Common Terminology Criteria (v4.03)[40]. Treatment-emergent AEs were defined as any AE occurring between the first dose of avapritinib through 30 d after the last dose of avapritinib, any event that was considered related to the study drug regardless of the start date of the event, or any event that was present at baseline but worsened intensity or was subsequently considered related to the study drug by the investigator.

[2] = tested on: advanced systemic mastocytosis (AdvSM); assay: Kaplan–Meier estimates of DOR, PFS and OS; type: in vivo, human
Method: Spleen response was determined for patients with baseline splenomegaly (spleen ≥ 5 cm by palpation) and was assessed by palpation or spleen volume by imaging (that is, ≥35% reduction from baseline in spleen volume based on central imaging); presence of either criterion was considered a response. DOR started at the first evidence of a response in any evaluable C-finding (per mIWG-MRT-ECNM criteria) and ended at the time a response was lost (that is, loss of response per mIWG-MRT-ECNM criteria). For patients who were still responding at the time of analysis, DOR was censored at the latest time point that the patient is assessed as having clinical improvement or better. OS was analyzed in the safety population and was defined as the time from first dose to the time of death due to any cause. PK data were summarized for patients with sufficient plasma concentration–time data. Descriptive statistics were used to summarize PK parameters for each dose level, as appropriate.
ORR was defined as the proportion of patients with a confirmed best response of CR, CRh, PR or clinical improvement by mIWG-MRT-ECNM consensus criteria. Time to CR/CRh/PR was defined as the time from the start of treatment to the time a CR/CRh/PR by mIWG-MRT-ECNM was first met. DOR was defined as the time from first documented response to the date of first documented progressive disease/loss of response or death due to any cause, whichever occurred first. OS was defined as the time from the start of treatment to the date of death. PFS was defined as the time from the start of treatment to the date of first documented progressive disease or death due to any cause, whichever occurred first. Progressive disease was defined per mIWG-MRT-ECNM criteria as worsening of ≥1 baseline C-finding confirmed for at least 4 weeks, or progression to acute myeloid leukemia.
OS, PFS and DOR were determined by Kaplan–Meier estimates, and 95% CIs were estimated using Greenwood’s formula[41]. Comparisons between two Kaplan–Meier functions was performed using a log-rank test.

Cn1cc(-c2cc3c(N4CCN(c5ncc([C@@](C)(N)c6ccc(F)cc6)cn5)CC4)ncnn3c2)cn1 [avapritinib]
Arthralgia AE, patients ([1]; human, in vivo): 3%
Cognitive effects (memory impairment, cognitive disorder, confusional state and encephalopathy), patients ([1]; human, in vivo): 30%
Cognitive effects leading to treatment discontinuation, patients ([1]; human, in vivo): 3%
Discontinuation due to related AEs ([1]; human, in vivo): 10%
Discontinuation due to unrelated AEs ([1]; human, in vivo): 9%
Grade 1 skin hypopigmentation, patients ([1]; human, in vivo): 3%
Hair color changes, patients ([1]; human, in vivo): 19%
Hypokalemia AE, patients ([1]; human, in vivo): 3%
Intracranial bleeding (ICB) in the absence of prior severe thrombocytopenia (platelets <50 × 10^9/l), patients ([1]; human, in vivo): 1%
Intracranial bleeding (ICB), patients ([1]; human, in vivo): 13%
Intracranial bleeding: cerebral hemorrhage ([1]; human, in vivo): 0 n (%)
Median time to first dose reduction ([1]; human, in vivo): 8 weeks
Patients with at least one dose reduction due to AEs ([1]; human, in vivo): 72%
Peripheral edema AE, patients ([1]; human, in vivo): 45%
Anaphylactic reaction ([1]; in vivo): one
ICB events associated with antecedent severe thrombocytopenia (platelet count <50 × 10^9/l) ([1]; in vivo): seven
ICB events, asymptomatic (grade 1) ([1]; in vivo): Five
ICB events, grade 2 ([1]; in vivo): two
ICB events, grade 3 ([1]; in vivo): one
ICB events, grade 5 ([1]; of nine patients with ICB, associated with head trauma): one
Deaths due to AEs ([1]; one (ICB) considered treatment related): six
Median duration of response (DOR) ([2]; 95% CI, 22 months–not estimable): 38 months
Estimated 24-month DOR rate ([2]; 95% CI, 49–84%): 67%
Estimated 12-month DOR rate ([2]; 95% CI, 72–96%): 84%
Median OS ([2]; AdvSM safety population (n = 69), median follow-up 23 months): not reached
Estimated 24-month OS rate ([2]; overall AdvSM, 95% CI, 64–87%): 76%
Estimated 24-month OS rate ([2]; patients with ASM): 100%
Estimated 24-month OS rate ([2]; patients with MCL, 95% CI, 76–100%): 92%
Estimated 24-month OS rate ([2]; patients with SM-AHN): 67%
OS (24-month OS rate) ([2]; patients with a MARS of 0–1, post hoc): 100%
Estimated PFS rate at 24 months ([2]; response-evaluable population (n = 53), 95% CI, 48–79%): 63%
Estimated PFS rate at 12 months ([2]; response-evaluable population (n = 53), 95% CI, 73–94%): 84%
Patients who progressed to acute myeloid leukemia ([2]; six patients, during the study): 9%
